Data reported in patent US10072026B2, “Crystalline form of 3-((1R,3s,5S)-3-((7-((5-methyl-1H-pyrazol-3-yl)amino)-1,6-naphthyridin-5-yl)amino)-8-azabicyclo[3.2.1]octan-8-yl)propanenitrile” (priority 2015, dated 2018).
Read-outs that look alike come from different tables or passages of the source.

Columns and labels:
JAK1 = JAK1 (Homo sapiens (Human), UniProt P23458); assay: LanthaScreen JAK biochemical assay (JAK1)
JAK2 = JAK2 (Homo sapiens (Human), UniProt O60674); assay: LanthaScreen JAK biochemical assay (JAK2)
Chain of JAK2 (O60674 whole entry): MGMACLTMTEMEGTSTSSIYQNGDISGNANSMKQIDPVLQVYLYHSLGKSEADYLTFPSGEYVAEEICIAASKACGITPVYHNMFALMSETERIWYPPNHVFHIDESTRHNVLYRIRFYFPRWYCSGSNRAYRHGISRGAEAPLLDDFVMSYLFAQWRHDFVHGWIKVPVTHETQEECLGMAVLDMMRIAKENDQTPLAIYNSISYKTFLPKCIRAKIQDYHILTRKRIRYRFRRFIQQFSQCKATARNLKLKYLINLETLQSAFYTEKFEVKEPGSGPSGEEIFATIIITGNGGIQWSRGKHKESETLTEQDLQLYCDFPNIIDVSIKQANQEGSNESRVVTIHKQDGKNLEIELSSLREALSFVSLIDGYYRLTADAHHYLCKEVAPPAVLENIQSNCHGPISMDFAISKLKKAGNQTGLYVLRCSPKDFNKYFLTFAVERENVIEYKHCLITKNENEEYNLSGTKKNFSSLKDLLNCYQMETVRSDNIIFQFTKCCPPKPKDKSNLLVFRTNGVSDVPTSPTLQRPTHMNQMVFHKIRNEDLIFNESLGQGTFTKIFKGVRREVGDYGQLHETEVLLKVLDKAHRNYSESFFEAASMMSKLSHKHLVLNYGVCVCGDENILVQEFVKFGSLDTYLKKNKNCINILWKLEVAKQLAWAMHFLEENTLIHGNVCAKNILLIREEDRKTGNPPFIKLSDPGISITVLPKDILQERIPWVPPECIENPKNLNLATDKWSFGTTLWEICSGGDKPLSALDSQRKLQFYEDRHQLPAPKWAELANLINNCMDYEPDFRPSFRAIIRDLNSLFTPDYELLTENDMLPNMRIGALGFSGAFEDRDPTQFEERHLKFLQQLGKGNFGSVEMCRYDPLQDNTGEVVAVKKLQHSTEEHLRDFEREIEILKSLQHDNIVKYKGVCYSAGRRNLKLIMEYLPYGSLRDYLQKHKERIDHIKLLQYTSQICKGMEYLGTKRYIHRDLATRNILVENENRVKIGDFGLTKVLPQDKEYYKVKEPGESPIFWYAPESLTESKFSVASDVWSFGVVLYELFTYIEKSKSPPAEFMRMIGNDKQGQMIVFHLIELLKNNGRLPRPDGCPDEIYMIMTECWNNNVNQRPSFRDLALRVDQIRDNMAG

Tyk2 = Tyk2 (Homo sapiens (Human), UniProt P29597); assay: LanthaScreen JAK biochemical assay (Tyk2)
Chain of Tyk2 (P29597 whole entry): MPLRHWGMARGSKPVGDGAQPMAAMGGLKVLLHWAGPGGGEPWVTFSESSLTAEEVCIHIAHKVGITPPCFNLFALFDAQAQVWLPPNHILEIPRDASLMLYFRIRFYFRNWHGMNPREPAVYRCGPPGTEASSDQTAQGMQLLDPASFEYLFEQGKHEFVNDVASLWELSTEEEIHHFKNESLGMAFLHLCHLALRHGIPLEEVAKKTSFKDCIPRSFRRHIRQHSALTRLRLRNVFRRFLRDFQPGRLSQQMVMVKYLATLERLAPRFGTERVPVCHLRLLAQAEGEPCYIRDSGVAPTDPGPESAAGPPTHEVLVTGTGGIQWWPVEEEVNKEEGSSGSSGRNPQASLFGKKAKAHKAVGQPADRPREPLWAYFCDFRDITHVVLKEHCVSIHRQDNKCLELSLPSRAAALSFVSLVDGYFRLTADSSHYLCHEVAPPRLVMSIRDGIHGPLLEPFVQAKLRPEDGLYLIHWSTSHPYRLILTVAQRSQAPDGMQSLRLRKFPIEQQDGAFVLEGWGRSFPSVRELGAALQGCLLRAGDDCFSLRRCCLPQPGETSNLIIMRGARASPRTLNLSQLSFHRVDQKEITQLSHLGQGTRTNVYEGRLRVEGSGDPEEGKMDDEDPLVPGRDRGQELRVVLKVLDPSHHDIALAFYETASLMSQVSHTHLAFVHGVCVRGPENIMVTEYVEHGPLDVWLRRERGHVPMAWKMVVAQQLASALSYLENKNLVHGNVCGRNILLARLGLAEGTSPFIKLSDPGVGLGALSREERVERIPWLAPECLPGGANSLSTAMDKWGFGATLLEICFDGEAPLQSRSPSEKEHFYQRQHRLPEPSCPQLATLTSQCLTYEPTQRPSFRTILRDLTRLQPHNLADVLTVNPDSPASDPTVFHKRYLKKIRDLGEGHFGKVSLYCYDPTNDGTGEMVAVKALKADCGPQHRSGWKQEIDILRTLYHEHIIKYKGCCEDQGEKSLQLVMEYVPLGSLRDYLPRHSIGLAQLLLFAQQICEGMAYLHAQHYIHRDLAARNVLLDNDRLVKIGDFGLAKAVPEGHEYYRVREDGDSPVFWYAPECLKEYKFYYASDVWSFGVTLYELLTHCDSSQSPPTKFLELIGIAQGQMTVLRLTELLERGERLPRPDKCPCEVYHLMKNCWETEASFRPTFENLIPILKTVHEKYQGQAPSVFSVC

[1] = test system: IL-4 induced STAT6 phosphorylation in THP-1 human monocytic cells; assay: Cellular JAK potency assay, THP-1
[2] = test system: IL-13 induced STAT6 phosphorylation in BEAS-2B human lung epithelial cells; assay: AlphaScreen cellular JAK potency assay, BEAS-2B
[3] = IL-4 induced STAT6 phosphorylation, THP-1 cells
[4] = IL-13 induced STAT6 phosphorylation, BEAS-2B cells
[5] = THP-1 cells, IL-4 induced STAT6 phosphorylation
[6] = BEAS-2B cells, IL-13 induced STAT6 phosphorylation
[7] = read-out: JAK 1 (pKi) (converted)
[8] = read-out: JAK 2 (pKi) (converted)
[9] = read-out: Tyk 2 (pKi) (converted)
[10] = Homo sapiens, THP-1, read-out: THP-1 IL4 pIC50 (converted)
[11] = Homo sapiens, BEAS-2B, read-out: BEAS2B pIC50 (converted)

Chain of JAK1 (P23458 whole entry): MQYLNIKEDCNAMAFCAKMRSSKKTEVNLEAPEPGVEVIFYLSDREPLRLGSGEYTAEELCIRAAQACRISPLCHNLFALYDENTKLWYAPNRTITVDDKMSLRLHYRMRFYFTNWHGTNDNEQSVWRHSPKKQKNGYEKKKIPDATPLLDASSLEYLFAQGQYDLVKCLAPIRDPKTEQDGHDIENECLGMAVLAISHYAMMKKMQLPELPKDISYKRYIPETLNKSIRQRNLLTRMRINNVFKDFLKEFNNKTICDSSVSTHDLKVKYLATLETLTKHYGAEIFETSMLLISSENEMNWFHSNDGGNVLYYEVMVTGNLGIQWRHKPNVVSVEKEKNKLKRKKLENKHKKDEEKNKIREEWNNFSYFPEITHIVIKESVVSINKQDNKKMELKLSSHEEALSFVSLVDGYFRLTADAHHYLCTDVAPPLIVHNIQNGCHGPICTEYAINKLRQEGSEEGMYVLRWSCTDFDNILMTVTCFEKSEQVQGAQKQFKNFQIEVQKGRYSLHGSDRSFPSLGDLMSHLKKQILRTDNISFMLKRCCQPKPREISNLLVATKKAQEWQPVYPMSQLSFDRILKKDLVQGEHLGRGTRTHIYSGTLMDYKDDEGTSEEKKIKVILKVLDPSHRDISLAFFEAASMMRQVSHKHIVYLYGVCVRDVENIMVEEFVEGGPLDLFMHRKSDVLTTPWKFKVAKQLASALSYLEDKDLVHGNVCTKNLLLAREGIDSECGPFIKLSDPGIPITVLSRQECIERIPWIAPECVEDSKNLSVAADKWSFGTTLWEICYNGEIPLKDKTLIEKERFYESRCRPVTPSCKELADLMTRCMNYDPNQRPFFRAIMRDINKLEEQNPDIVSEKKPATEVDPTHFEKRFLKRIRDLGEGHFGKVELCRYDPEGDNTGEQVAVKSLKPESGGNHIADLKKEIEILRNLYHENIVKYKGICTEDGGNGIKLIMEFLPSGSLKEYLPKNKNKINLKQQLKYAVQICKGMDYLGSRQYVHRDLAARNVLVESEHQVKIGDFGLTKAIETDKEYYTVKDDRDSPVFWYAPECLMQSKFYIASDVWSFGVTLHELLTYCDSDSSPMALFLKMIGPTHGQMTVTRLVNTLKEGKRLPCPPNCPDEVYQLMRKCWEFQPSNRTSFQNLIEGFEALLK

Compound | JAK 1 (pKi) (JAK1) | JAK 2 (pKi) (JAK2) | Tyk 2 (pKi) (Tyk2) | THP-1 IL4 pIC50 [1, 5] | BEAS2B pIC50 [2, 6] | IC50 [1, 10] [nM] | IC50 [2, 11] [nM] | also measured
Cc1cc(Nc2cc3ncccc3c(N[C@@H]3C[C@H]4CCC[C@@H](C3)N4Cc3ccncc3C#N)n2)n[nH]1 [Example 1-56] | B (B represents a pKi value between 9 and 10 (Ki between 1 nM and 0.1 nM)) | B (B represents a pKi value between 9 and 10 (Ki between 1 nM and 0.1 nM)) | B (B represents a pKi value between 9 and 10 (Ki between 1 nM and 0.1 nM)) |  |  |  |  | THP-1 IL4 pIC50 [1, 3]: A (A represents a pEC50 value≥7.5 (EC50≤32 nM)); BEAS2B pIC50 [2, 4]: A (A represents a pEC50 value≥7.5 (EC50≤32 nM))
Cc1cc(Nc2cc3ncc(S(C)(=O)=O)cc3c(N[C@@H]3C[C@H]4CC[C@@H](C3)N4CCC(F)(F)F)n2)n[nH]1 [Example 6-56] | B (B represents a pKi value between 9 and 10 (Ki between 1 nM and 0.1 nM)) | A (A represents a pKi value≥10 (Ki≤0.1 nM)) | B (B represents a pKi value between 9 and 10 (Ki between 1 nM and 0.1 nM)) | B (B represents a pEC50 value between 6.7 and 7.5 (EC50 between 200 nM and 32 nM)) | B (B represents a pEC50 value between 6.7 and 7.5 (EC50 between 200 nM and 32 nM)) |  |  | 
COc1ccc2c(N[C@@H]3C[C@H]4CC[C@@H](C3)N4CC(F)(F)F)nc(Nc3cc(C)[nH]n3)cc2n1 [Example 5-1] |  |  |  |  |  | < 31.6 | < 31.6 | Ki (JAK1; [7]): 0.1 to 1 nM; Ki (JAK2; [8]): 0.1 to 1 nM; Ki (Tyk2; [9]): 0.1 to 1 nM
COc1cnc2cc(Nc3cc(C)[nH]n3)nc(N[C@@H]3C[C@H]4CCC[C@@H](C3)N4S(C)(=O)=O)c2c1 [Example 6-29] | B (B represents a pKi value between 9 and 10 (Ki between 1 nM and 0.1 nM)) | B (B represents a pKi value between 9 and 10 (Ki between 1 nM and 0.1 nM)) | B (B represents a pKi value between 9 and 10 (Ki between 1 nM and 0.1 nM)) | A (A represents a pEC50 value≥7.5 (EC50≤32 nM)) | A (A represents a pEC50 value≥7.5 (EC50≤32 nM)) |  |  | 
Cc1cc(Nc2cc3ncccc3c(N[C@@H]3C[C@H]4CC[C@@H](C3)N4CC(F)(F)F)n2)n[nH]1 [Example 1-14] |  |  |  |  |  | < 31.6 | < 31.6 | Ki (JAK1): 0.1 to 1 nM; Ki (JAK2): 0.1 to 1 nM; Ki (Tyk2): 0.1 to 1 nM
Cc1cc(Nc2cc3nc(CN4CCOCC4)ccc3c(N[C@@H]3C[C@H]4CC[C@@H](C3)N4S(=O)(=O)c3cncc(F)c3)n2)n[nH]1 [Example 5-20] |  |  |  |  |  | < 31.6 | 31.6 to 200 | Ki (JAK1; [7]): 0.1 to 1 nM; Ki (JAK2; [8]): 0.1 to 1 nM; Ki (Tyk2; [9]): 0.1 to 1 nM
Cc1cnc2c(F)c(Nc3cc(C)[nH]n3)nc(N[C@@H]3C[C@H]4CCC[C@@H](C3)N4S(=O)(=O)N3CC(C#N)C3)c2c1 [Example 8-23] | B (B represents a pKi value between 9 and 10 (Ki between 1 nM and 0.1 nM)) | A (A represents a pKi value≥10 (Ki≤0.1 nM)) | B (B represents a pKi value between 9 and 10 (Ki between 1 nM and 0.1 nM)) | B (B represents a pEC50 value between 6.7 and 7.5 (EC50 between 200 nM and 32 nM)) | B (B represents a pEC50 value between 6.7 and 7.5 (EC50 between 200 nM and 32 nM)) |  |  | 
COc1ccc2c(N[C@@H]3C[C@H]4CC[C@@H](C3)N4CCC#N)nc(Nc3cc(C)[nH]n3)cc2n1 [Example 5-8] | B (B represents a pKi value between 9 and 10 (Ki between 1 nM and 0.1 nM)) | B (B represents a pKi value between 9 and 10 (Ki between 1 nM and 0.1 nM)) | B (B represents a pKi value between 9 and 10 (Ki between 1 nM and 0.1 nM)) |  |  |  |  | THP-1 IL4 pIC50 [1, 3]: A (A represents a pEC50 value≥7.5 (EC50≤32 nM)); BEAS2B pIC50 [2, 4]: A (A represents a pEC50 value≥7.5 (EC50≤32 nM))
COc1cnc2cc(Nc3cc(C)[nH]n3)nc(N[C@@H]3C[C@H]4CC[C@@H](C3)N4S(=O)(=O)CCCC#N)c2c1 [Example 6-21] | B (B represents a pKi value between 9 and 10 (Ki between 1 nM and 0.1 nM)) | B (B represents a pKi value between 9 and 10 (Ki between 1 nM and 0.1 nM)) | B (B represents a pKi value between 9 and 10 (Ki between 1 nM and 0.1 nM)) |  | B (B represents a pEC50 value between 6.7 and 7.5 (EC50 between 200 nM and 32 nM)) |  |  | 
